Data: article PMC7281280, “Is the Way to Fight Cancer Paved with Gold? Metal-Based Carbene Complexes with Multiple and Fascinating Biological Features” (Pharmaceuticals, 2020)

What was measured:
[1] = tested on: MDA-MB-231 human breast cancer cells; test: MTT cell viability, MDA-MB-231; type: cell-based; conditions: 72 h, mean ± SD
Procedure: (§1) The six cell lines used in this work (MCF-7, MDA-MB-231, HeLa, […], MCF-10A and Hek-293) were purchased from American Type Culture Collection (ATCC, Manassas, VA, USA). MCF-7 human breast cancer cells, estrogen receptor (ER)-positive, were maintained in Dulbecco’s modified Eagle’s medium/nutrient mixture Ham F-12 (DMEM/F12), supplemented with 10% fetal bovine serum (FBS) and 100 U mL^−1 penicillin/streptomycin. MCF-10A human mammary epithelial cells, were cultured in DMEM/F12 medium, supplemented with 5% horse serum (HS, Thermo Fisher Scientific, Milan, Italy), 100 U mL^−1 penicillin/streptomycin, […] hydrocortisone, 20 ng mL^−1 human epidermal growth factor (hEGF), […] insulin, and […] cholera enterotoxin (Sigma–Aldrich, Milan, Italy). MDA-MB-231 human breast cancer cells, known as triple-negative cells (i.e., not overexpressing human epidermal growth factor receptor 2 (HER2), estrogen and progesterone receptors), were cultured in DMEM/F12 supplemented with 5% FBS, 1% L-glutamine and 100 U mL^−1 penicillin/streptomycin. HeLa human epithelial cervix carcinoma cells, estrogen receptor (ER)-negative, and […] human endometrial adenocarcinoma cells, estrogen receptor (ER)-positive, were maintained in minimum essential Eagle’s Medium (MEM), supplemented with 10% FBS, 1% L-glutamine, 100 U mL^−1 penicillin/streptomycin and 1% Non-Essential Amino Acids (NEAA). Hek-293 human embryonic kidney epithelial cells were cultured in DMEM high glucose (4.5 g L^−1), supplemented with 10% FBS, 1% L-glutamine and 100 U mL^–1 penicillin/streptomycin. Cells were maintained at 37 °C in a humidified atmosphere of 95% air and 5% CO2 and periodically screened for contamination.
(§2) Cell viability has been determined using the 3-(4,5-dimethylthiazol-2-y1)-2,5-diphenyltetrazolium bromide (MTT, Sigma–Aldrich, Milan, Italy) assay. Cells have been seeded on 48-well plates and grown in complete medium. Before being treated, cells have been starved in serum free medium for 24 h for allowing cell cycle synchronization. […] Data are representative of three independent experiments; standard deviations (SD) have been shown.

[2] = tested on: HeLa human epithelial cervix carcinoma cells; test: MTT cell viability, HeLa; type: cell-based; conditions: 72 h, mean ± SD
Procedure: as §1, §2

[3] = tested on: MCF-10A human mammary epithelial cells; test: MTT cell viability, normal MCF-10A; type: cell-based; conditions: 72 h, mean ± SD
Procedure: as §1, §2

tubulin = test: In vitro tubulin-polymerization assay (turbidity at 350 nm); type: biochemical; conditions: 10 µM
Procedure: Tubulin-polymerization inihibition was measured using in vitro Tubulin-Polymerization Assay Kit purchased fromEMD Millipore Corporation. Polymerization reactions occur in 70 µL final volumes, of which 60 µL is the 60 µM tubulin in 1 × PB-GTP and 10 µL is the test substance dissolved in 1 × PB-GTP. […] These reactives were combined in 96-well plate on ice. After the plate was transferred into the spectrophotometer pre-warmed at 37 °C and the turbidity variation was measured every 30 s at 350 nm for 90 min. The plate was shaked for 10 s before each measurement. Turbidity (absorbance) readings were used to calculate the extent of polymerization [% inhibition = (1−A350 sample/A350 control) × 100].
Figure 4 Tubulin-polymerization assay. […] Two positive control molecules, Paclitaxel and Vinblastine, were used as tubulin-stabilizing and tubulin-destabilizing agents, respectively. DMSO was used as a negative control. Assembly of tubulin into microtubules was determined by measuring the turbidity at 350 nm for 3600 s at 37 °C. All the compounds were used at a concentration of 10 μM.

MDA-MB-231 cells [4] = test: Immunofluorescence of microtubules, MDA-MB-231; type: cell-based, human; conditions: at IC50 value, 24 h
Procedure: Cells were grown on glass coverslips in full media, then serum-deprived for 24 h and exposed to compounds for 24 h (concentration equal to its IC50 value). Then, the cells after PBS-washed, were fixed with cold methanol (15 min/−20 °C) and incubated with primary antibody, diluted in blocking solution (4 °C/overnight), as previously described. The mouse anti-β-Actin (69879) and the rabbit anti-β tubulin (9104) were purchased from Santa Cruz Biotechnology and used at 1:100 dilution. Coverslips were then washed 3 times with PBS, then fixed cells were incubated with the secondary antibody Alexa Fluor® 568 conjugate goat-anti-mouse and Alexa Fluor® 488 conjugate goat-anti-rabbit (1:500, Thermo Fisher Scientific, Waltham, MA, USA). Nuclei were stained using DAPI (Sigma–Aldrich, Mila, Italy) for 10 min at a concentration of 0.2 μg/mL then washed 3 times with PBS. Fluorescence was detected using a fluorescence microscope (Leica DM 6000). LAS-X software was used to acquire and process all images.
Figure 5 Immunofluorescence studies. […] Panels A: DAPI, excitation/emission wavelength 350 nm/460 nm; panels B: β-tubulin (Alexa Fluor® 488) excitation/emission wavelength 490 nm/515 nm; panels C show a merge. Representative fields are shown.

[5] = biological target: T1, human topoisomerase II (hTopo II) (Homo sapiens, UniProt P11388); test: Human topoisomerase II decatenation assay; type: biochemical; conditions: 1 μM
T1 construct: purchased topoGEN, Port Orange, FL, USA
Procedure: Decatenated and linear kDNA (Figure 8, lanes 1 and 2) are used as markers.
hTopo II decatenation assays were performed in a final volume of […], as reported by Iacopetta et al., using […] of kinetoplast DNA (kDNA) (topoGEN, Port Orange, FL, USA), tested compounds and 3 units of hTopo II (topoGEN, Port Orange, FL, USA). The reaction products were loaded in an agarose gel with EB. At the end, the gel was washed with distilled water and analyzed using a UV transilluminator. The experiment was repeated three times.
Lane 1 and 2, decatenated and linear kDNA, respectively.

MDA-MB-231 cells [6] = test: Detection of intracellular ROS (DCF-DA); type: cell-based, human
Procedure: We used 2,7-dichlorofluorescin diacetate (DCF-DA) as a fluorometric probe for ROS detection and their production was examined under an inverted fluorescence microscope, as already reported.
Cells were grown on glass coverslips until the treatment with compound or menadione (used as positive control) (Sigma–Aldrich, Milan, Italy). Then, cells were incubated with 10 μM 2′-7′-Dichlorofluorescein diacetate (Sigma–Aldrich, Milan, Italy) for 40 min at 37 °C in a 5% CO2 incubator, as previously described. Then, DAPI (0.2 μg mL^−1) counterstain was performed for 10 min at room temperature, in the dark. Cells were then washed three times with cold PBS, adding one drop of mounting solution, then they were observed and imaged under a fluorescence microscope (Leica DM6000; 20× magnification) with excitation/emission wavelength maxima of 490 nm/515 nm (DCF) or 350 nm/460 nm (DAPI). Images are representative of three independent experiments.
Images were acquired at 20× magnification. […] Fields are representative of three separate experiments.

caspase-8 = conditions: 5 μM, 24 h, MDA-MB-231 cells

T1 sequence (P11388 whole entry): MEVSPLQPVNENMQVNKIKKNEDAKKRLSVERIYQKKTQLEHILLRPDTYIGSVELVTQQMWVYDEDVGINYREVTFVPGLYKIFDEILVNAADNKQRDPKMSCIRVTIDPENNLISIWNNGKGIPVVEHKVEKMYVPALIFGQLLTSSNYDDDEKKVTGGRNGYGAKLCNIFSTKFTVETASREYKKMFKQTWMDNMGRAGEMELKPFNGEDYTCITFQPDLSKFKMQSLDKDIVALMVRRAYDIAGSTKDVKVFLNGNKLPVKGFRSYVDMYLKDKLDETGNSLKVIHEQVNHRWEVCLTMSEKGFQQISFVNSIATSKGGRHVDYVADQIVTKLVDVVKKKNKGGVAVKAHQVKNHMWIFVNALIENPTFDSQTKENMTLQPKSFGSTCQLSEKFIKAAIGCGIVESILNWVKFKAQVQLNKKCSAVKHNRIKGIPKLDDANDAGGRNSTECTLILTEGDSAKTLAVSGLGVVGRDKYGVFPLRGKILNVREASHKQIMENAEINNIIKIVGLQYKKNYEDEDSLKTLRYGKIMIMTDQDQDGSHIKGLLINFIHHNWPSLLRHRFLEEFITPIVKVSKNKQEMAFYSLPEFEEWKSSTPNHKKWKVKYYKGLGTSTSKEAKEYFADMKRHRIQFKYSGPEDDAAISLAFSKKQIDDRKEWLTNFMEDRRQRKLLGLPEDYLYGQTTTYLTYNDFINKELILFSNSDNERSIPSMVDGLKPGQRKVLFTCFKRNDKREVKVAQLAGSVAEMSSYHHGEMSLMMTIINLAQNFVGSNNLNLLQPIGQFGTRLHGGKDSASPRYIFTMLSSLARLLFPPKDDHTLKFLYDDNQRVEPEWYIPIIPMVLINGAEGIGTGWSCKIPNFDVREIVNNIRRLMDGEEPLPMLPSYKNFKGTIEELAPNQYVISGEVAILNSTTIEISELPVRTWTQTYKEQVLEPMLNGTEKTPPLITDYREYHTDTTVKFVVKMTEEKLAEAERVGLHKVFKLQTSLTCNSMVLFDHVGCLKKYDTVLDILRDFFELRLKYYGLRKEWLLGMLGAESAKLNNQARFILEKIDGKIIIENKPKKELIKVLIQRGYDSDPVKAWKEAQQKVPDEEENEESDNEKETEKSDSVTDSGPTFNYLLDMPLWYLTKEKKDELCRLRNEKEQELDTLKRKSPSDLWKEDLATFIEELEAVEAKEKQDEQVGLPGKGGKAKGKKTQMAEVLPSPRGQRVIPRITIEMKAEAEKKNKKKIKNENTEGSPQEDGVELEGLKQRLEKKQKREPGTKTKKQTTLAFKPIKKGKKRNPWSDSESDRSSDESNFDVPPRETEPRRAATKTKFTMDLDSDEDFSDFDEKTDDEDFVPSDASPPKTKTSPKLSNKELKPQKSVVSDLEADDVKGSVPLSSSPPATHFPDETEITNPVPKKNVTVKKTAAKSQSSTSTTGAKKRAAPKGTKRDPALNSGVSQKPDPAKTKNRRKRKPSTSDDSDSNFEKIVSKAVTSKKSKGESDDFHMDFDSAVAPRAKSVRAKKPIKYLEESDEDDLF

C[n+]1c(Cl)c(Cl)n(CC(O)c2ccccc2)[c]1[Au-][c]1n(CC(O)c2ccccc2)c(Cl)c(Cl)[n+]1C.[Cl][Au-][Cl] (racemic) [AuL7, bis-[4,5-dichloro-(N-methyl-N’(2-hydroxy-2-phenyl)ethyl-imidazole-2-ylidene)gold(I)]^+[dichloro-gold]^−]
IC50 [1]: 2.1 ± 0.7 µM
IC50 [2]: 31.9 ± 0.5 µM
IC50 [3]: > 200 µM
IC50 MCF-10A [3]: inactive
effect on tubulin-polymerization reaction (tubulin): tubulin-polymerization inhibitor
final optical density value at 350 nm (OD350) (tubulin; 37 °C, vehicle (DMSO) about 0.43): about 0.25
effect on microtubule network, MDA-MB-231 (MDA-MB-231 cells [4]): vinblastine-like mode of action
inhibition of hTopo II decatenation activity [5]: total blockade of hTopoII activity
ROS production, fold lesser compared to Men-treated cells (MDA-MB-231 cells [6]; DCF fluorescence quantified by ImageJ): 1.5 fold
ROS production (DCF green fluorescence) (MDA-MB-231 cells [6]; fluorescence microscopy): significantly higher with respect to the vehicle-treated cells
caspase-8 activity (caspase-8): unchanged
